Test results published in patent publication US7795457B2, “Carbamate compounds” (Kosan Biosciences Incorporated, priority 2007, dated 2010).
Where two headings read alike, the source gives them in different places.

Columns and labels:
CRM1 substrate RanBP1 = experiment: Nuclear export block (RanBP1 localization, recovery after compound removal); format: cell-based; conditions: recovery of cytoplasmic RanBP1 localization after compound washout (typically 1 h exposure; 8, 24 or 48 h recovery)
Experimental: The nuclear export blocking capability of compounds of this invention was evaluated as follows:
1-5×10^4 cells were seeded onto 12 mm glass coverslips or wells of a chamber slide (for example, Lab-Tek #177445). Cells were grown overnight at 37° C. to allow cells to attach to the surface. Media was removed and replaced with media containing the desired test compound and incubated the required time period (typically 1 h). For recovery experiments, cells were washed with PBS or media and incubated in media without test compound for the desired recovery periods (typically 8, 24, or 48 h). The media was removed and coverslips/wells were washed with PBS pH 7.4 for 1 minute. Coverslips or slides were fixed with 3.7% formaldehyde in PBS for 20 minutes at room temperature, washed three times in PBS, and stained for the CRM1 substrate RanBP1.
Coverslips or chamber slides were permeabilized and blocked in 10% donkey serum, 0.1% Triton X-100 in PBS for 30 minutes at room temperature. Primary antibodies were diluted in PBS and incubated for 1 hour at room temperature: goat-anti-RanBP1 (Santa Cruz Biotechnology, sc-1160; 1:50 dilution) and mouse-anti-tubulin (Sigma, T9026; 1:400). Cells were washed 3×5 minutes in PBS. Secondary antibodies donkey-anti-goat Cy3 (705-165-147, Jackson Immunoresearch) and donkey anti-mouse FITC (715-095-150, Jackson Immunoresearch) were diluted 1:200 in PBS and incubated for 1 hour at room temperature. Secondary antibody was removed and cells were stained with a nuclear dye such as DAPI (Sigma, D8417; 2.5 ug/mL in PBS) or Hoechst 33342 (Molecular Probes, H3570; 100 ng/mL in PBS) for 5 minutes at room temperature. Cells were washed 3×5 minutes in PBS and coverslips were mounted with FluorSave (EMD Biosciences, 80058-108). Nuclear (N) or cytoplasmic (C) localization of RanBP1 was examined using a 40× objective on a Zeiss Axiovert 200 inverted epiflourescence microscope. Nuclear localization (N>C) was confirmed after the initial drugging period.

HCT-116 = experiment: Inhibition of tumor cell proliferation, HCT-116; format: cell-based, human; conditions: Homo sapiens, HCT-116, read-out: Cancer Cell Line (IC50, nM) HCT-116
Experimental: (§1) The biological activity of compounds of this invention was evaluated by measuring their inhibitory effect on the proliferation of various tumor cell lines. HCT-116 is a human colon cancer cell line. LNCap is a human prostate cancer cell line. SiHa is an HPV-16 positive human cervical cancer line.

LNCap = experiment: Inhibition of tumor cell proliferation, LNCap; format: cell-based, human; conditions: Homo sapiens, LNCaP, read-out: Cancer Cell Line (IC50, nM) LNCap
Experimental: as §1

SiHa = experiment: Inhibition of tumor cell proliferation, SiHa; format: cell-based, human; conditions: Homo sapiens, SiHa, read-out: Cancer Cell Line (IC50, nM) SiHa
Experimental: as §1

A549 = experiment: Inhibition of tumor cell proliferation, A549; format: cell-based; conditions: Homo sapiens, read-out: IC50, nM, A549
Experimental: as §1
(§2) Table D presents additional data for the activity of compounds A-1 and A-4 against various cell lines. In some instances, comparative data against leptomycin B (LMB) and/or compound VI (Dong et al., US 2005/0272727 A1 (2005) is also provided.
(§3) The additional cell lines tested against represent a variety of different cancers: bladder cancer (UM-UC-3), breast cancer (BT474, HCC1937, MDA-MB468, NCI-ADR), CNS cancer (U87MG (glioma), SKNSH (neuroblastoma)), colon cancer (LoVo, LS411N, LS513), head and neck cancer (CAL-27, FaDu), leukemia (CCRF-CEM, MOLT-4), liver cancer (HepG2), lung cancer (A549, NCI-H23, NCI-H358), melanoma (Colo829), ovarian cancer (OVCAR-4), pancreatic cancer (BxPC-3, Mia-PaCa2), prostate cancer (22Rv1, PC-3), and renal cancer (A-498, Caki-1).

NCI-ADR = experiment: Inhibition of tumor cell proliferation, NCI-ADR; format: cell-based; conditions: Homo sapiens, NCI/ADR-RES, read-out: IC50, nM, NCI-ADR
Experimental: as §1, §2, §3

UM-UC-3 = experiment: Inhibition of tumor cell proliferation, UM-UC-3; format: cell-based; conditions: Homo sapiens, read-out: IC50, nM, UM-UC-3
Experimental: as §1, §2, §3

SKNSH = experiment: Inhibition of tumor cell proliferation, SKNSH; format: cell-based; conditions: Homo sapiens, SK-N-SH, read-out: IC50, nM, SKNSH
Experimental: as §1, §2, §3

22Rv1 = experiment: Inhibition of tumor cell proliferation, 22Rv1; format: cell-based; conditions: Homo sapiens
Experimental: as §1, §2, §3

A-498 = experiment: Inhibition of tumor cell proliferation, A-498; format: cell-based; conditions: Homo sapiens, A498; exposure time 1 h
Experimental: as §1, §2, §3

BT474 = experiment: Inhibition of tumor cell proliferation, BT474; format: cell-based; conditions: Homo sapiens, BT-474
Experimental: as §1, §2, §3

Caki-1 = experiment: Inhibition of tumor cell proliferation, Caki-1; format: cell-based; conditions: Homo sapiens, exposure time 1 h
Experimental: as §1, §2, §3

CAL-27 = experiment: Inhibition of tumor cell proliferation, CAL-27; format: cell-based; conditions: Homo sapiens
Experimental: as §1, §2, §3

CCRF-CEM = experiment: Inhibition of tumor cell proliferation, CCRF-CEM; format: cell-based; conditions: Homo sapiens, exposure time 72 h
Experimental: as §1, §2, §3

Colo829 = experiment: Inhibition of tumor cell proliferation, Colo829; format: cell-based; conditions: Homo sapiens, COLO-829
Experimental: as §1, §2, §3

FaDu = experiment: Inhibition of tumor cell proliferation, FaDu; format: cell-based; conditions: Homo sapiens
Experimental: as §1, §2, §3

HCC1937 = experiment: Inhibition of tumor cell proliferation, HCC1937; format: cell-based; conditions: Homo sapiens
Experimental: as §1, §2, §3

HepG2 = experiment: Inhibition of tumor cell proliferation, HepG2; format: cell-based; conditions: Homo sapiens
Experimental: as §1, §2, §3

LoVo = experiment: Inhibition of tumor cell proliferation, LoVo; format: cell-based; conditions: Homo sapiens, exposure time 1 h
Experimental: as §1, §2, §3

LS411N = experiment: Inhibition of tumor cell proliferation, LS411N; format: cell-based; conditions: Homo sapiens, LS-411N
Experimental: as §1, §2, §3

LS513 = experiment: Inhibition of tumor cell proliferation, LS513; format: cell-based; conditions: Homo sapiens, LS-513
Experimental: as §1, §2, §3

Mia-PaCa2 = experiment: Inhibition of tumor cell proliferation, Mia-PaCa2; format: cell-based; conditions: Homo sapiens, MIA PaCa-2
Experimental: as §1, §2, §3

MOLT-4 = experiment: Inhibition of tumor cell proliferation, MOLT-4; format: cell-based; conditions: Homo sapiens, exposure time 72 h
Experimental: as §1, §2, §3

NCI-H23 = experiment: Inhibition of tumor cell proliferation, NCI-H23; format: cell-based; conditions: Homo sapiens
Experimental: as §1, §2, §3

NCI-H358 = experiment: Inhibition of tumor cell proliferation, NCI-H358; format: cell-based; conditions: Homo sapiens
Experimental: as §1, §2, §3

OVCAR-4 = experiment: Inhibition of tumor cell proliferation, OVCAR-4; format: cell-based; conditions: Homo sapiens
Experimental: as §1, §2, §3

PC-3 = experiment: Inhibition of tumor cell proliferation, PC-3; format: cell-based; conditions: Homo sapiens
Experimental: as §1, §2, §3

U87MG = experiment: Inhibition of tumor cell proliferation, U87MG; format: cell-based; conditions: Homo sapiens, U-87 MG
Experimental: as §1, §2, §3

## CCC(=C/[C@H](C)C/C=C/C(C)=C/[C@@H](C)C(=O)[C@@H](C)[C@H](O)[C@@H](C)C/C(C)=C/C(=O)O)/C=C/[C@@H]1OC(=O)C=C[C@@H]1C [Leptomycin B, reference compound]
CRM1 substrate RanBP1
  Nuclear Export Block: Slow recovery
HCT-116; exposure time to compound 1 h
  IC50: 4.3 nM
HCT-116; exposure time to compound 72 h
  IC50: 0.32 nM
LNCap; exposure time to compound 1 h
  IC50: 3.3 nM
LNCap; exposure time to compound 72 h
  IC50: 0.3 nM
SiHa; exposure time to compound 1 h
  IC50: 2.1 nM
SiHa; exposure time to compound 72 h
  IC50: 0.4 nM
A549; A549, exposure time 72 h
  IC50: 0.55 nM
NCI-ADR; exposure time 1 h
  IC50: 33.8 nM
UM-UC-3; UMUC3, exposure time 72 h
  IC50: 0.3 nM
SKNSH; exposure time 1 h
  IC50: 4.1 nM
SKNSH; exposure time 72 h
  IC50: 0.4 nM

## CCC(=C/[C@H](C)C/C=C/C(C)=C/[C@@H](C)C(=O)[C@@H](C)[C@H](O)[C@@H](C)C/C(C)=C/C(=O)NCCc1cccnc1)/C=C/[C@@H]1OC(=O)C=C[C@@H]1C [VI, reference compound]
22Rv1; exposure time 1 h
  IC50: 1.8 nM
22Rv1; exposure time 72 h
  IC50: 0.3 nM
A-498
  IC50: 4.8 nM
A549; A549, 1 h
  IC50: 3.8 nM
A549; A549, 72 h
  IC50: 3 nM
BT474; exposure time 1 h
  IC50: 2.1 nM
BT474; exposure time 72 h
  IC50: 0.8 nM
Caki-1
  IC50: 4.5 nM
CAL-27; exposure time 1 h
  IC50: 0.7 nM
CAL-27; exposure time 72 h
  IC50: 0.3 nM
CCRF-CEM
  IC50: 0.8 nM
Colo829; exposure time 1 h
  IC50: 2.1 nM
Colo829; exposure time 72 h
  IC50: 0.3 nM
FaDu; exposure time 1 h
  IC50: 7.3 nM
FaDu; exposure time 72 h
  IC50: 1 nM
HCC1937; exposure time 1 h
  IC50: 5.7 nM
HCC1937; exposure time 72 h
  IC50: 4.3 nM
HepG2; exposure time 1 h
  IC50: 3.2 nM
HepG2; exposure time 72 h
  IC50: 0.7 nM
LoVo
  IC50: 2.5 nM
LS411N; exposure time 1 h
  IC50: 2.9 nM
LS411N; exposure time 72 h
  IC50: 0.5 nM
LS513; exposure time 1 h
  IC50: 5.5 nM
LS513; exposure time 72 h
  IC50: 0.9 nM
Mia-PaCa2; exposure time 1 h
  IC50: 5 nM
Mia-PaCa2; exposure time 72 h
  IC50: 1.7 nM
MOLT-4
  IC50: 2.9 nM
NCI-ADR; 1 h
  IC50: 77.3 nM
NCI-ADR; 72 h
  IC50: 13 nM
NCI-H23; exposure time 1 h
  IC50: 2.6 nM
NCI-H23; exposure time 72 h
  IC50: 0.4 nM
NCI-H358; exposure time 1 h
  IC50: 1.6 nM
NCI-H358; exposure time 72 h
  IC50: 0.4 nM
OVCAR-4; exposure time 1 h
  IC50: 6.7 nM
OVCAR-4; exposure time 72 h
  IC50: 1.5 nM
PC-3; exposure time 1 h
  IC50: 3.3 nM
PC-3; exposure time 72 h
  IC50: 0.7 nM
U87MG; exposure time 1 h
  IC50: 5 nM
U87MG; exposure time 72 h
  IC50: 0.6 nM
UM-UC-3; UMUC3, 1 h
  IC50: 2.6 nM
UM-UC-3; UMUC3, 72 h
  IC50: 0.3 nM
SKNSH; 1 h
  IC50: 2.2 nM
SKNSH; 72 h
  IC50: 0.5 nM
